Test results: patent publication US20060264623A1, “DNA-PK inhibitors” (KuDOS Pharmaceuticals Limited, priority 2005, published 2006)
Where two headings read alike, the source gives them in different places.

Legend:
PI 3-kinase = settings: stated to be the same as for DNA-PK; cited from earlier work
cells = settings: cited from earlier work
DNA-PK [1] = target: T1, DNA-PK (Homo sapiens, UniProt P78527); settings: in vitro; read-out: IC50 towards DNA-PK; cited from earlier work
DNA-PK [2] = target: T1, DNA-PK; assay: DNA-PK inhibition assay (ELISA, p53 serine 15 phosphorylation of GST-p53N66); assay type: biochemical, Mammalian (HeLa cell nuclear extract)
Procedure: In order to assess the inhibitory action of the compounds against DNA-PK in vitro, the following assay was used to determine IC50 values.
DNA-PK (250 ng) activity was measured at 30° C., in a final volume of 40 μl, in buffer containing 25 mM Hepes, pH7.4, 12.5 mM MgCl2, 50 mM KCl, 1 mM DTT, 10% Glycerol, 0.1% NP-40 and […] of the substrate GST-p53N66 (the amino terminal 66 amino acid resiudes of human wild type p53 fused to glutathione S-transferase) in polypropylene 96 well plates. To the assay mix, varying concentrations of inhibitor (in DMSO at a final concentration of 1%) were added. After 10 minutes of incubation, ATP was added to give a final concentration of 50 μM along with a 30mer double stranded DNA oligonucleotide (final concentraion of 0.5 ng/ml) to initiate the reaction. After 1 hour with shaking, 150 μl of phosphate buffered saline (PBS) was added to the reaction and 5 μl then transferred to a 96 well opaque white plate containing 45 μl of PBS per well where the GSTp53N66 substrate was allowed to bind to the wells for 1 hour. […] An anti-rabbit HRP conjugated secondary antibody (Pierce) was then employed in the ELISA before the addition of chemiluminescence reagent (NEN Renaissance) to detect the signal as measured by chemiluminescent counting via a TopCount NXT (Packard).
The enzyme activity for each compound is then calculated using the following equation: [formula] […]

HeLa cells = assay: Survival Enhancement Ratio, clonogenic survival assay after 2 Gray irradiation; assay type: cell-based; settings: inhibitor 500 nM
Procedure: The Survival Enhancement Ratio (SER) is a ratio of the enhancement of cell kill elicited by the DNA-PK inhibitor after 2 Grays of irradiation compared to unirradiated control cells. DNA-PK inhibitors were used at a fixed concentration of 500 nM. Radiation was delivered by a Faxitron 43855D machine at a dose rate of 1 Gy pre minute The SER at 2 Gray irradiation was calculated from the formula: [formula]
The degree of cell killing was monitored by a standard clonogenic survival assay. Briefly, tissue culture treated 6-well plates were seeded with HeLa cells at an appropriate concentration to give 100-200 colonies per well and returned to the incubator in order to allow the cells to attach. Four hours later, compound or vehicle control was added to the cells. The cells were then incubated for 1 hour in the presence of inhibitor prior to irradiation at 2 Gray using a Faxitron 43855D cabinet X-ray machine. The cells were then incubated for a further 16 hours before the media was replaced with fresh media in the absence of DNA-PK inhibitor. After 8 days, colonies formed were fixed and stained with Giemsa (Sigma, Poole, UK) and scored using an automated colony counter (Oxford Optronics Ltd, Oxford, UK). The data was calculated as described above.

IC50 (DNA-PK [2]) [µM] | SMILES | IC50 (PI 3-kinase) [µM] | sensitisation of cells to the effects of IR (cells) | IC50 (DNA-PK [1]) [µM] | SER (Survival Enhancement Ratio) (HeLa cells)
 | O=c1cc(N2CCOCC2)oc2c(-c3ccccc3)cccc12 [LY294002] | ~1 | weakly sensitise | ~1 | 
0.76 | O=c1cc(N2CCOCC2)oc2c(-c3cccc(-c4ccccc4)c3)cccc12 |  |  |  | 1.5
